The record followed here is US11752162B2, “Compounds and compositions for treating solid tumors by intratumoral administration” (Novartis AG, priority 2017, dated 2023).

The term MRT denotes the average time that molecules of a dose stay in the body. The half-life is how long it takes for the measured level to halve. A low value points to rapid decline. Usually clearance stands for a measure of how efficiently the substance is removed, as volume per time. Higher therefore signals efficient removal. By AUC(0-inf) is commonly meant the area under the concentration-time curve extrapolated to infinity. A high value points to more exposure. The term Cmax denotes the maximum level reached in the sampled fluid or tissue. As a reminder, the Tmax is the time from dosing to the highest level.

One data set can be described thus: in vivo. The following applies: male, Wistar, rat, iv, 1 mg/kg. The protocol:
Note: The pharmacokinetic properties of Compound 15 in 50 mM Tris/0.9% NaCl (pH 7.4) were examined in male Wistar rats following a single 1 mg/kg intravenous bolus administration.

Data set [1] in a line: Wistar rat subcutaneous PK, fixed aluminum hydroxide 5 mg/mL (Example 10). The format is in vivo. The protocol:
The pharmacokinetic properties of Compound 15 were examined in naïve male Wistar rats following: • a) a single 200 μL subcutaneous (s.c.) injection of 600 μg of free form Compound 15 in 100 mM Tris buffer pH 7.4; • b) a single 200 μL subcutaneous (s.c.) injection of 50 μg of Compound 15 adsorbed to aluminum hydroxide at a 1:20 ratio (w/w) of Compound 15 to aluminum hydroxide-Suspension G described below; • and • c) a single 200 μL subcutaneous (s.c.) injection of 600 μg of Compound 15 adsorbed to aluminum hydroxide at a 1:1.7 ratio (w/w) of Compound 15 to aluminum hydroxide-Suspension F described below.
The systemic concentration of Compound 15 was evaluated following a single 200 μL subcutaneous injection of two different dose levels of Compound 15 adsorbed to aluminum hydroxide, where the aluminum hydroxide was at a fixed dose concentration of 5 mg/mL.
In this study, two groups male Wistar rats (n=3 per group) were injected subcutaneously (s.c.) with either 50 μg or 600 μg of Compound 15 absorbed to aluminum hydroxide. An injection volume of 200 μL of Suspension G and Suspension F was used to obtain 50 and 600 μg of Compound 15 absorbed to aluminum hydroxide, respectively. The injection volume of 200 μL per rat was not normalized to body weights of the rats. As described above the Compound 15/aluminum hydroxide ratio for Suspension F was 1:1.7 w/w, while for Suspension G it was 1:20 w/w.
Blood samples (˜100 μL each) were taken serially via saphenous bleed from each rat until 168 h post dose (see Table 9 for sampling schedule). Blood samples were centrifuged to separate plasma and the plasma samples were frozen at −20° C. prior to analysis using LC/MS/MS (as described in Example 5) to obtain the systemic concentrations of Compound 15.

For the next data set, the system named is IP-10. The data set can be described thus: Plasma IP-10 profiles in Wistar rats after s.c. injection. Conditions: male Wistar rats. Type of data set: in vivo, rat.
Data set [2] in a line: Mouse plasma PK, MC38 syngeneic tumor model, one week study. Type of data set: in vivo. The following applies: female, C57BL/6, mouse, 100 ug, 100 μg Compound 15, single i.t. injection, MC38 tumor bearing mice.
Description: A MC38 syngeneic mouse tumor model was used to investigate the systemic exposure of Compound 15 following: • a) a single intra-tumoral (i.t.) injection of 100 μg (˜4 mg/kg) of free form Compound 15 in 20 mM Tris buffer pH 7.4, • b) a single intra-tumoral (i.t.) injection of Compound 15 adsorbed to Alhydrogel® suspension at a 1:1.5 ratio (w/w) of Compound 15 to Alhydrogel®)-Suspension A described below and • c) a single subcutaneous (s.c.) injection of Compound 15 adsorbed to Alhydrogel® suspension at a 1:1.5 ratio (w/w) of Compound 15 to Alhydrogel®-Suspension A described below.
For each mouse, 0.25×10^6 cells were implanted with subcutaneously injection into right flank using a 28½ g needle (1004 injection volume). Female C57BL/6 mice bearing the MC38 tumors were randomized into separate groups (n=3-24 mice per group) 10 days post tumor cell implantation with an average tumor volume range of 95.05-194.36 mm^3.
Approximately 10 days after MC38 tumor implant, tumor bearing mice received a single dose of vehicle, 100 μg of free Compound 15 solution (2 mg/mL) or Compound 15 adsorbed to Alhydrogel (1:1.5 w/w; 97% bound) by direct intra-tumoral (i.t.) injection or subcutaneous (s.c.) injection. The dose volume was 50 μL per animal. Plasma samples were taken up to 7 days post dose at time points indicated in Table 11 (n=3 animal per time point).
Plasma concentrations of Compound 15 were quantified using a Liquid Chromatography/Mass Spectrometry (LC/MS/MS) assay. […] To 20 μL of each plasma sample or appropriately diluted plasma sample, 25 μL of internal standard solution was added, then mixed with 150 μL of extraction solvent (methanol/acetonitrile, 80/20 by volume) to precipitate plasma proteins. The samples were vortexed for 5 minutes then centrifuged with an Eppendorf Centrifuge 5810R (Eppendorf, Hamburg, Germany) at a setting of 4,000 rpm for 10 minutes at 4° C. Aliquot of supernatant (50 μL) was transferred to a clean 96-well plate and mixed with 100 μL of Milli-Q water. The mixed samples were injected (25 μL) onto a Waters XBridge C4 analytical column (2.1×50 mm, 3.5 μm), and mobile phases consisted of 0.1% formic acid in water (solvent A) and 0.1% formic acid in acetonitrile (solvent B). […]
The HPLC system, consisting of Agilent 1200 series binary pump (Agilent Technologies Inc.), Agilent 1200 series micro vacuum degasser (Agilent Technologies Inc.), CTC PAL-HTC autosampler (LEAP Technologies, Carborro, N.C., USA) was interfaced to a AB Sciex API 4000 QTrap mass spectrometer (AB Sciex LLC., Framingham, Mass., USA). […] The lower limit of quantitation (LLOQ) in plasma was 0.25 ng/mL. […]
A short description of data set [3]: Wistar rat subcutaneous PK dose study (Example 9). Type of data set: in vivo. The following applies: sc, 600 ug, 600 μg Compound 15 s.c., male Wistar rats, plasma. The protocol: The pharmacokinetic properties of Compound 15 were examined in naïve male Wistar rats following: • a) a single 200 μL subcutaneous (s.c.) injection of 600 μg of free form Compound 15 in 100 mM Tris buffer pH 7.4; • b) a single 200 μL subcutaneous (s.c.) injection of 50 μg of Compound 15 adsorbed to aluminum hydroxide at a 1:2.5 ratio (w/w) of Compound 15 to aluminum hydroxide-Suspension E described below; • c) a single 200 μL subcutaneous (s.c.) injection of 200 μg of Compound 15 adsorbed to aluminum hydroxide at a 1:2.5 ratio (w/w) of Compound 15 to aluminum hydroxide-Suspension D described below, and • d) a single 200 μL subcutaneous (s.c.) injection of 600 μg of Compound 15 adsorbed to aluminum hydroxide at a 1:2.5 ratio (w/w) of Compound 15 to aluminum hydroxide-Suspension C described below.
In this study, male Wistar rats (n=3 per group) were injected subcutaneously (s.c.) with 600 μg free Compound 15 or increasing doses of 50, 200 and 600 μg of Compound 15 absorbed to aluminum hydroxide. An injection volume of 200 μL of Suspension E, Suspension D and Suspension C was used to obtain 50, 200 and 600 μg of Compound 15 absorbed to aluminum hydroxide, respectively. The injection volume of 200 μL per rat was not normalized to body weights of the rats. As described above the Compound 15/aluminum hydroxide ratio for Suspension E, Suspension D and Suspension C was fixed at 1:2.5 w/w.
Blood samples (˜100 μL each) were taken serially via saphenous bleed from each rat until 96 h post dose (see Table 9 for sampling schedule). Blood samples were centrifuged to separate plasma and the plasma samples were frozen at −20° C. prior to analysis using LC/MS/MS (as described in Example 5) to obtain the systemic concentrations of Compound 15.

Where [4] appears, read: rat, sc, 600 ug, 600 μg Compound 15 s.c., male Wistar rats, plasma, Table 15 (free compound data from Example 9).

In the data set “in vivo”, `Cc1cc(OCCOCCC(F)(F)P(=O)(O)O)ccc1CCc1cnc2c(N)nc3cc(CCC(=O)O)ccc3c2c1` [Compound 15, 3-(5-amino-2-(4-(2-(3,3-difluoro-3-phosphonopropoxy)ethoxy)-2-methylphenethyl)benzo[f][1,7]naphthyridin-8-yl)propanoic acid] gave an MRT of 12 min and a half-life of 72 min. The clearance in the data set “in vivo” (pH 7.4) amounted to 9.2 mL/min/kg. Also, in data set [1] (adsorbed onto aluminum hydroxide, following subcutaneous injection, rats), the “retention of Compound 15 at the local injection site” value was “up to 1 week”. Moreover, in data set [1] (setting [4]), the AUC(0-inf) was found to be 2560 ng·h/mL, the peak level (Cmax) was 3660 ng/mL, the Tmax is 15 min and the half-life was 126 min. Also, the “peak plasma IP-10 levels compared with 600 μg Compound 15/aluminum hydroxide” value in the data set on IP-10 (600 μg s.c.) is “higher peak IP-10 levels with a fast rate of decline”. The “time of maximum plasma IP-10 levels post s.c. injection” value in the data set on IP-10 (50 and 600 μg adsorbed, 600 μg free Compound 15) is “around 3 h”. Moreover, in data set [2], the AUC(0-inf) was found to be 6220 ng·h/mL, the highest concentration (Cmax) amounted to 10600 ng/mL and the Tmax worked out at 4.98 min. Besides, the half-life in data set [2] (other: intra-tumoral (i.t.) injection) was 159 min. Further, in data set [3], the AUC(0-inf) was found to be 2560 ng·h/mL, the maximum concentration (Cmax) was determined as 3660 ng/mL, the Tmax amounted to 15 min and the half-life was 126 min.
